Measurements published in patent US9828362B2, “1,4-disubstituted imidazole derivative” (Sumitomo Dainippon Pharma Co., Ltd., priority 2015, dated 2017).

Tests used:
HCT-116 tumor = experiment: Anti-tumor effect to HCT-116 tumor-bearing mouse; format: in vivo; conditions: nude mouse, oral, dosage 30 mg/kg, administration period 17 days, tumor volume
Description: The present compound can be used to evaluate the anti-tumor effect thereof. A 4 to 7-week-old nude mouse (BALB/cAnNCrj-nu/nu, female, CHARLES RIVER LABORATORIES JAPAN, INC.) received intradermal transplantation of HCT-116 cells (ATCC) in an amount of 3×10^6 cells/mouse around the ventral portion. The engraftment of HCT-116 cells was observed 5 to 14 days after the transplantation, and then each compound suspended in a solvent such as 0.5% methylcellulose solution was orally administrated to the mouse in a dose of 1 to 100 mg/kg one to twice daily. The tumor volume was measured over time after the administration. to evaluate the effect for reducing the tumor volume by the administration of each compound. The tumor volume can be calculated from the minor axis and the major axis of the tumor measured with a digital caliper (Mitutoyo) according to the following formula: Tumor volume [mm^3]=0.5×minor axis [mm]×(major axis [ram])^2
The tumor volume is control administration group treated. with only a solvent such as 0.5% methylcellulose solution was compared with that of the present compound administration group, and T/C value was calculated according the following formula to evaluate the anti-tumor effect of the present compound. […]

HCT-116 cells = experiment: Test for inhibiting sphere-forming ability of cancer cells (in the presence of BSA); format: cell-based; conditions: Homo sapiens, 96 h, Ultra-Low Attachment plate, medium with 5% bovine serum albumin (BSA), cultured 4 days, CellTiter-Glo, read-out: Sphere IC50 value (concentration for 50% inhibition of cell proliferation)
Protocol: HCT-116 cells were available from the American Type Culture Collection (ATCC). HCT-116 cells were cultured at 37° C. and 5% CO2 using the McCoy's 5a medium containing 10% fetal bovine serum (FBS) and 1% penicillin/streptomycin. […] The test compounds were added into each well to adjust the final concentration of DMSO to 0.1%, and the cells were cultured for 4 days.

IC50 (HCT-116 cells) | SMILES | T/C (%) (HCT-116 tumor)
 | Nc1cc(C(=O)Nc2cn(Cc3cc(F)c(F)c(F)c3)cn2)cnc1CO [Example 46] | 91%
> 10 µM | CC(C)(O)c1ccc(/C=C/C(=O)Nc2cn(Cc3cccc(C(F)(F)F)c3)cn2)cn1 [Example 53, (2E)-3-[6-(2-Hydroxypropan-2-yl)pyridin-3-yl]-N-{1-[3-(trifluoromethyl)benzyl]-1H-imidazol-4-yl}prop-2-enamide] | 
